# Results: patent US4731383A, “Aminoguanidine compounds, their compositions and pharmaceutical uses” (Biogal Gyogyszergyar, priority 1983, dated 1988)
# Where a name gives a salt, the structure may show the parent alone. Read-outs that look alike come from different tables or passages of the source.
# Key:
# [1] = test system: anaesthesized cats, fibrillation threshold of the heart; test: Determination of the fibrillation threshold in anaesthetized cats; format: in vivo; settings: cat
# Source text: The chests of the cats were opened under chloralose-urethane anaesthesia, a bipolar stimulating electrode was fixed onto the heart, and the heart was stimulated electrically with a frequency of 20 Hz, under continuously increasing current strength, until a fibrillo-flattern could be observed. This current strength was considered as the fibrillation threshold of the animal.
# [2] = test system: right ventricle of isolated rabbit heart; test: Electrophysiological tests in the isolated rabbit heart, right ventricle; settings: 2.0 mg/l, n = 4
# Experimental: (§1) Hearts of rabbits of both sexes, weighing 1 to 2 kg, were removed, the right and left auricles and a segment of the right ventricle were prepared and placed into a vessel filled with nutrient solution. Bipolar platinum electrodes (a stimulating electrode and a lead electrode) were placed on the organ strips, and the electric stimulus threshold and the speed of impulse conduction were measured. The effective refractory period was determined on the basis of the maximal driving frequency.
# [3] = test system: mice treated with aconitin; test: animal or person; format: in vivo; settings: Mus musculus, read-out: Delay in the appearance time of arrhythmia
# Experimental: Arrhytmia was induced in male mice, weighing 20 to 25 g, by treating them continuously, at a rate of 0.2 ml/min with an infusion containing 5 μg/kg of aconitin. The test compound was administered to the animals either intraperitoneally (by injecting it into the abdominal cavity) 15 minutes before the start of the infusion, or orally 60 minutes before the onset of the infusion. The time of the appearance of arrhythmia was recorded, and the percentage of delay was calculated in relation to the data obtained in the controls, pretreated with 0.9 percent sodium chloride solution only [B. Vargaftig and J. L. Coignet: European J. of Pharmacol. 6, 49 to 55 (1969); N. K. Dadkar and B. K. Bhattachariya: Arch. Int. Pharmacodyn. 212, 297 to 301 (1974); D. U. Nwagwu, T. L. Holcslaw and S. J. Stohs: Arch. Int. Pharmacodyn. 229, 219 to 226 (1977)].
# [4] = test system: left auricle of isolated rabbit heart; test: Electrophysiological tests in the isolated rabbit heart, left auricle; settings: 2.0 mg/l, n = 4
# Experimental: as §1
# in vivo = settings: mouse
# [5] = 2.0 mg/kg i.v., 2 min following treatment
# [6] = 2.0 mg/kg i.v., 10 min following treatment
# [7] = 2.0 mg/kg i.v., 20 min following treatment
# [8] = 4.0 mg/kg i.v., 2 min following treatment
# [9] = 4.0 mg/kg i.v., 10 min following treatment
# [10] = 4.0 mg/kg i.v., 20 min following treatment
# [11] = 20 mg/kg i.d., 10 minutes following treatment
# [12] = 20 mg/kg i.d., 20 minutes following treatment
# [13] = 20 mg/kg i.d., 30 minutes following treatment
# [14] = 20 mg/kg i.d., 40 minutes following treatment
# [15] = 20 mg/kg i.d., 50 minutes following treatment
# [16] = 20 mg/kg i.d., 60 minutes following treatment
# [17] = 20 mg/kg i.d., 70 minutes following treatment
# [18] = 20 mg/kg i.d., 80 minutes following treatment
# [19] = 20 mg/kg i.d., 90 minutes following treatment
# [20] = 20 mg/kg i.d., 100 minutes following treatment
smiles,measurement,setting,value
"Cc1cccc(C)c1OCC(C)N.Cl (stereo not drawn) [Mexiletin, 1-(2,6-Dimethylphenoxy)-2-aminopropane hydrochloride, reference compound]",Percentual change in the fibrillation threshold,"[1]; 10.0 mg/kg i.v., 10 min following treatment",+161.2%
same,Percentual change in the fibrillation threshold,"[1]; 10.0 mg/kg i.v., 20 min following treatment",+92.0%
same,Change in conduction time,[2],+11%
same,Change in electric stimulus threshold,[2],+6%
same,Change in max. driving frequency,[2],-28%
same,change in vivo at 5 mg/kg,[3]; ip,3.5%
same,change in vivo at 10 mg/kg,[3]; ip,7.7%
same,change in vivo at 25 mg/kg,[3]; ip,33%
same,change in vivo at 50 mg/kg,[3]; ip,83%
same,change in vivo at 75 mg/kg,[3]; ip,162%
same,change in vivo at 100 mg/kg,[3]; po,93%
same,Change in conduction time,[4],+24%
same,Change in electric stimulus threshold,[4],36%
same,Change in max. driving frequency,[4],-32%
"CN(C)C(=N)NNc1c(Cl)cccc1Cl [Example 2, 1-(2,6-Dichlorophenyl)-4,4-dimethyl-aminoguanidine]",LD50,in vivo; ip,73 mg/kg
same,LD50,in vivo; po,220 mg/kg
same,change in vivo at 25 mg/kg,[3]; ip,79%
same,change in vivo at 50 mg/kg,[3]; ip,156%
same,change in vivo at 25 mg/kg,[3]; po,39%
same,change in vivo at 50 mg/kg,[3]; po,71%
same,change in vivo at 100 mg/kg,[3]; po,150%
Cc1cccc(C)c1NNC(=N)N1CCCC1 [Example 11],Percentual change in the fibrillation threshold,[1]; [5],+130.6%
same,Percentual change in the fibrillation threshold,[1]; [6],+149.0%
same,Percentual change in the fibrillation threshold,[1]; [7],+163.3%
same,Percentual change in the fibrillation threshold,[1]; [8],+176.0%
same,Percentual change in the fibrillation threshold,[1]; [9],+328.0%
same,Percentual change in the fibrillation threshold,[1]; [10],+316.0%
same,Percentual change in the fibrillation threshold,[1]; [11],+5.8%
same,Percentual change in the fibrillation threshold,[1]; [12],+22.0%
same,Percentual change in the fibrillation threshold,[1]; [13],+43.8%
same,Percentual change in the fibrillation threshold,[1]; [14],+79.6%
same,Percentual change in the fibrillation threshold,[1]; [15],+115%
same,Percentual change in the fibrillation threshold,[1]; [16],+118%
same,Percentual change in the fibrillation threshold,[1]; [17],+141%
same,Percentual change in the fibrillation threshold,[1]; [18],+198%
same,Percentual change in the fibrillation threshold,[1]; [19],+209.5%
same,Percentual change in the fibrillation threshold,[1]; [20],+272.5%
CN(C)C(=N)NNc1ccccc1 [Example 18],change in vivo at 100 mg/kg,[3]; po,74%
CN(C)C(=N)NNc1ccccc1Cl [Example 6],change in vivo at 50 mg/kg,[3]; ip,114%
same,change in vivo at 100 mg/kg,[3]; po,70%
"CCN(CC)C(=N)NNc1ccccc1C [Example 4, 1-(2-Methyl-phenyl)-4,4-diethyl-aminoguanidine hydrochloride]",change in vivo at 5 mg/kg,[3]; ip,28%
same,change in vivo at 10 mg/kg,[3]; ip,77%
CN(C)C(=N)NNc1cccc(Cl)c1 [Example 9],change in vivo at 50 mg/kg,[3]; ip,171%
CCc1cccc(C)c1NNC(=N)N(C)C [Example 21],change in vivo at 25 mg/kg,[3]; ip,110%
same,change in vivo at 50 mg/kg,[3]; ip,86%
CC1CCCCN1C(=N)NNc1ccccc1Cl (stereo not drawn) [Example 8],change in vivo at 5 mg/kg,[3]; ip,32%
same,change in vivo at 10 mg/kg,[3]; ip,110%
Cc1ccccc1NNC(=N)N1CCCC1 [Example 7],change in vivo at 25 mg/kg,[3]; ip,50%
same,change in vivo at 50 mg/kg,[3]; ip,128%
same,change in vivo at 50 mg/kg,[3]; po,54%
same,change in vivo at 100 mg/kg,[3]; po,137%
"C=C[C@H]1C[N@@]2CC[C@H]1C[C@@H]2[C@@H](O)c1ccnc2ccc(OC)cc12 [Quinidine, quinidine, reference compound]",Percentual change in the fibrillation threshold,"[1]; 10 mg/kg i.d., 10 minutes following treatment",+0.4%
same,Percentual change in the fibrillation threshold,"[1]; 10 mg/kg i.d., 20 minutes following treatment",+26.7%
same,Percentual change in the fibrillation threshold,"[1]; 10 mg/kg i.d., 30 minutes following treatment",+58.5%
same,Percentual change in the fibrillation threshold,"[1]; 10 mg/kg i.d., 40 minutes following treatment",+48.5%
same,Percentual change in the fibrillation threshold,"[1]; 10 mg/kg i.d., 50 minutes following treatment",+32.1%
same,Percentual change in the fibrillation threshold,"[1]; 10 mg/kg i.d., 70 minutes following treatment",+9.5%
same,Percentual change in the fibrillation threshold,"[1]; 10 mg/kg i.d., 80 minutes following treatment",+8.8%
same,Percentual change in the fibrillation threshold,"[1]; 10 mg/kg i.d., 90 minutes following treatment",+3.8%
same,Percentual change in the fibrillation threshold,"[1]; 10 mg/kg i.d., 100 minutes following treatment",0.0%
Cc1cccc(C)c1NNC(=N)N(C)C [Example 5],LD50,in vivo; ip,130 mg/kg
same,LD50,in vivo; po,400 mg/kg
same,Percentual change in the fibrillation threshold,"[1]; 0.5 mg/kg i.v., 2 min following treatment",+18.75%
same,Percentual change in the fibrillation threshold,"[1]; 0.5 mg/kg i.v., 10 min following treatment",+40.75%
same,Percentual change in the fibrillation threshold,"[1]; 0.5 mg/kg i.v., 20 min following treatment",+37.6%
same,Percentual change in the fibrillation threshold,"[1]; 1.0 mg/kg i.v., 2 min following treatment",+35.2%
same,Percentual change in the fibrillation threshold,"[1]; 1.0 mg/kg i.v., 10 min following treatment",+55.2%
same,Percentual change in the fibrillation threshold,"[1]; 1.0 mg/kg i.v., 20 min following treatment",+48.4%
same,Percentual change in the fibrillation threshold,[1]; [5],+101.1%
same,Percentual change in the fibrillation threshold,[1]; [6],+93.0%
same,Percentual change in the fibrillation threshold,[1]; [7],+94.15%
same,Percentual change in the fibrillation threshold,[1]; [8],+153.3%
same,Percentual change in the fibrillation threshold,[1]; [9],+125.65%
same,Percentual change in the fibrillation threshold,[1]; [10],+124.0%
same,Percentual change in the fibrillation threshold,"[1]; 8.0 mg/kg i.v., 2 min following treatment",+392.8%
same,Percentual change in the fibrillation threshold,"[1]; 8.0 mg/kg i.v., 10 min following treatment",+354.5%
same,Percentual change in the fibrillation threshold,"[1]; 8.0 mg/kg i.v., 20 min following treatment",+310.25%
same,Percentual change in the fibrillation threshold,[1]; [11],+22.2%
same,Percentual change in the fibrillation threshold,[1]; [12],+29.0%
same,Percentual change in the fibrillation threshold,[1]; [13],+94.0%
same,Percentual change in the fibrillation threshold,[1]; [14],+103.7%
same,Percentual change in the fibrillation threshold,[1]; [15],+100.4%
same,Percentual change in the fibrillation threshold,[1]; [16],+105.8%
same,Percentual change in the fibrillation threshold,[1]; [17],+100.3%
same,Percentual change in the fibrillation threshold,[1]; [18],+121.5%
same,Percentual change in the fibrillation threshold,[1]; [19],+132.8%
same,Percentual change in the fibrillation threshold,[1]; [20],+132.3%
same,change in vivo at 25 mg/kg,[3]; ip,113%
same,change in vivo at 50 mg/kg,[3]; ip,155%
same,change in vivo at 100 mg/kg,[3]; po,111%
Cc1ccccc1NNC(=N)N1CCOCC1 [Example 22],change in vivo at 50 mg/kg,[3]; ip,100%
"CCN(CC)C(=N)NNc1ccccc1Cl [Example 3, 1-(2-Chlorophenyl)-4,4-diethyl-aminoguanidine hydrochloride]",change in vivo at 10 mg/kg,[3]; ip,108%
same,change in vivo at 20 mg/kg,[3]; ip,68%
